Experimental data as given in patent EP1621201A1, “Hesperidin for prophylaxis and treatment of diseases of the central nervous system, in particular Alzheimer's and Parkinson's diseases, for therapy after stroke as well as for chronic pain” (NeuroCode AG, priority 2004, dated 2006).

Test system: Fischer-344 Ratten
Assay: Tele-Stereo-EEG in freely moving rats (field potentials from frontal cortex, hippocampus, striatum, reticular formation; power density spectra)
Type: in vivo, Ratte
Conditions: rat
Procedure: Die Veränderungen der EEG-Frequenzen nach intraperitonealer Gabe von Salzlösung (Kontrolle) bzw. einer Dosis von Hesperidin (80 und 160 mg/kg Körpergewicht) wurden bestimmt.
Die Untersuchungen wurden analog der durch W. Dimpfel beschriebenen Methode (Dimpfel W Preclinical data base of pharmaco-specific rat EEG fingerprints (Tele-Stereo-EEG). Eur J Med Res (2003) 8: 199-207) folgendermaßen durchgeführt:
Zwölf männlichen erwachsenen Fischer-344 Ratten (Tag-Nacht konvertiert) wurden im Alter von 6 Monaten 4 bipolar konzentrische Elektroden zusammen mit einem Mikrostecker auf einer gemeinsamen Basisplatte implantiert. Der Stecker diente der Aufnahme eines 4-Kanal-Senders zur telemetrischen Übertragung der aus frontalem Kortex, Hippokampus, Striatum und Formation Reticularis abgeleiteten Feldpotentiale. Die Signale wurden auf einem Computer System (Software "EEG-Analyse", Betriebssystem OS Science, Laborrechner "LabTeam" der Firma MediSyst, Linden, DE) in Echtzeit einer Fast-Fourier-Transformation unterworfen und die Leistungsdichtespektren jeweils über 15 bis 60 Minuten gemittelt. Die Unterteilung der Spektren in 6 verschiedene Frequenzbereiche erlaubte die Erfassung pharmako-spezifischer Veränderungen in Bezug auf die jeweils vor Applikation gemessenen Vorwerte innerhalb dieser Frequenzbänder.
Zum Applikationsprotokoll der Substanzen: die Substanzen wurden i.p. 45 Minuten nach Beginn der Messungen (Vorwert) injiziert. Fünf Minuten später wurden die Messungen wieder gestartet, mindestens über die nächsten 5 Stunden kontinuierlich analysiert und in 60-minütigen Perioden zusammengefaßt. Die Testsubstanz wurde in einer Dosierung von 80 und 160 mg/kg appliziert. Die experimentelle Serie wurde mit der Injektion von Salzlösung (Kontrolle), die zu keiner auffälligen Änderung führte, begonnen.
Der statistische Vergleich der Versuche zu den Ergebnissen, die nach Gabe von Salzlösung gemessen wurde, erfolgte mit Hilfe einer multivariaten Analyse nach Ahrens und Läuter (siehe H. Ahrens, J. Läuter "Mehrdimensionale Varianzanalyse" (1974), Akademie Verlag, Berlin) auf der Basis der Veränderungen innerhalb der einzelnen Frequenzbänder in allen Hirnregionen als Variablen.

COc1ccc([C@@H]2CC(=O)c3c(O)cc(O[C@@H]4O[C@H](CO[C@@H]5O[C@@H](C)[C@H](O)[C@@H](O)[C@H]5O)[C@@H](O)[C@H](O)[C@H]4O)cc3O2)cc1O [Hesperidin, Hesperetin 7-rhamnoglucosid]
zeitabhängige Veränderungen der EEG-Frequenzen (delta, theta und alpha2 Frequenzen) (80 or 160 mg/kg Hesperidin i.p., Fig. 3a and 3b): nehmen statistisch signifikant und dauerhaft ab
correlation of the EEG pattern with patterns of drugs for neurodegenerative diseases, pain and stroke (discriminant analysis) (i.p. single dose, compared with Tacrin, Piracetam, Memantine, Metamizol, Amphetamin, no correlation with patterns of drugs for other indications): korrelieren in signifikanter Weise
delta, theta und alpha2 Frequenzen (i.p., 160 mg/kg, first hour after administration): Abfall
duration for which the pattern (decrease of delta, theta, alpha2) was observed (i.p., 160 mg/kg, whole test period): 5 Stunden
Veränderungen der Leistungsdichte in den einzelen Hirnregionen (i.p., 80 and 160 mg/kg, versus pre-drug baseline): dosis-abhängig zu deutlichen Veränderungen
Muster der EEG-Frequenzänderungen (i.p., after 80 and 160 mg/kg, versus saline): stabiles, statistisch signifikantes Muster
